Experimental findings from PubChem BioAssay (NCI) are described below.

Holding throughout (test): NCI tumour cell line growth inhibition, 48 h
In experiment [1] the test system is IGROV1 ovarian.
For experiment [2], the system named is EKVX NSCLC.
Experiment [3] has as its system NCI-H226 lung.
Experiment [4] has as its system OVCAR-5 ovarian.
Experiment [5] deals with T-47D breast.
In experiment [6] the test system is UO-31 renal.
In experiment [7] the test system is LOX IMVI melanoma.
The subject of experiment [8] is MDA-MB-435.
In experiment [9] the test system is PC-3 prostate.
For experiment [10], the system named is SK-OV-3 ovarian.
The test system of experiment [11] is HOP-92 NSCLC.
Experiment [12] relates to UACC-62 melanoma.
The test system of experiment [13] is MDA-N.

Molecules are shown by their SMILES.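 96-well plates; 48 h exposure; 5 concentrations. Endpoints by linear interpolation between flanking doses. Not reached: highest tested concentration assigned. Abbreviation: GI50, concentration required for 50% inhibition of growth. TGI: concentration producing complete growth inhibition.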 Some results are limits rather than exact numbers.

As to `CC(C)C(NCc1c(O)ccc2c(-c3ccccc3)cc(=O)oc12)C(=O)O` (stereo not given), the TGI in experiment [1], in experiment [2], in experiment [3], in experiment [4], in experiment [5] and in experiment [6] was more than 100 µM each time. Further, the TGI in experiment [7], in experiment [8], in [9], in [10], in experiment [11] and in experiment [12] was more than 100 µM throughout. In [13], this compound yielded a TGI of more than 100 µM.
As for `C/C(=N\Nc1nc2ccccc2s1)c1cc(C)ncn1`, the TGI was 20.5 µM in experiment [1]; 17.1 µM in experiment [2]; 4.46 µM in experiment [3]; more than 68.2 µM in experiment [4]; more than 100 µM in [5]; 3.84 µM in experiment [6]. Further, the TGI was more than 100 µM in experiment [7]; more than 54.1 µM in [8]; 34.5 µM in [9]; more than 35.7 µM in experiment [10]; more than 30.6 µM in experiment [11]; more than 32.8 µM in experiment [12]. Also, in experiment [13], the TGI was 47.3 µM.
As for `O=c1oc2ccc([N+](=O)[O-])cc2c(Nc2ccc3c(c2)S(=O)(=O)c2ccccc2O3)c1[N+](=O)[O-]`, the TGI was more than 100 µM in experiment [1]; more than 100 µM in [2]; 96.8 µM in experiment [3]; more than 100 µM in experiment [4]; more than 100 µM in [5]; more than 100 µM in experiment [6]. Also, the TGI in experiment [7], in experiment [8], in experiment [9], in experiment [10], in experiment [11] and in experiment [12] was more than 100 µM throughout. This compound showed a TGI in experiment [13] of more than 100 µM.
For `N#CC(C#N)=Cn1c(=S)[nH]c2ccccc21`, the TGI in [1], in experiment [2], in experiment [3], in experiment [4], in experiment [5] and in [6] was more than 100 µM in each case. Besides, the TGI in experiment [7], in [8], in experiment [9], in experiment [10], in [11] and in experiment [12] was more than 100 µM each time. This compound yielded a TGI in experiment [13] of more than 100 µM.
With `CCN(CC)CCO/N=C1/C=C2CCC3C(CC[C@@]4(C)C3CC[C@]4(C)O)[C@@]2(C)CC1` (stereo not given in full), the TGI turned out to be 21 µM in [1]; 42.9 µM in [2]; 10.2 µM in experiment [3]; 80 µM in [4]; 68 µM in [5]; 18.9 µM in experiment [6]. Besides, the TGI in [7] is 14.8 µM; in [8], 4.77 µM; in experiment [9] it was 88.1 µM; in experiment [10], 46.4 µM; in experiment [11], 21 µM; in experiment [12] it was 8.57 µM. This compound also displayed a TGI in experiment [13] of 5.72 µM.
For the compound `CC(C)C(NC(=O)C(Cc1ccccc1)NC(=O)[C@H]1CCC[C@H]1NC(=O)C(N)Cc1ccc(O)cc1)C(N)=O` (stereo not given in full), the TGI in experiment [1], in experiment [2], in [3], in experiment [4], in [5] and in [6] was more than 100 µM throughout. For the same compound, the TGI in [7], in experiment [8], in experiment [9], in [10], in [11] and in experiment [12] was more than 100 µM in each case. Moreover, the TGI in experiment [13] was more than 100 µM.
For the compound `CCCC[C@H]1CCN2C[C@@H](O)[C@@H](O)[C@H]2[C@@H]1O`, the TGI in [1], in experiment [2], in [3], in [4], in experiment [5] and in [6] was more than 100 µM each time. Also, the TGI in experiment [7], in experiment [8], in [9], in experiment [10], in experiment [11] and in [12] was more than 100 µM each time. Further, the TGI in experiment [13] is more than 100 µM.
Turning to `CC(=O)O[C@@H](C1C[C@@H](C)[C@H]2[C@@](O)(O1)[C@H](O)[C@@]1(C)C3=CC[C@H]4C(C)(C)[C@@H](OC5OCC(O)C(O)C5O)CC[C@@]45C[C@@]35CC[C@]21C)C(C)(C)O` (stereo not given in full), the TGI in [1] was more than 100 µM; in experiment [2] it was 61.6 µM; in experiment [3], 45.9 µM; in [4] it was 56.6 µM; in experiment [5], 67.7 µM; in [6] it was 62.2 µM. In addition, the TGI in [7] worked out at 42.4 µM; in experiment [8], 53.3 µM; in experiment [9], 50.7 µM; in experiment [10], 63.9 µM; in experiment [11], 60.5 µM; in experiment [12], 40.3 µM. The compound further had a TGI in experiment [13] of 73.6 µM.
With `COc1ccc(CCNCCCC2c3ccccc3-c3ccccc32)cc1OC`, the TGI worked out at 26.8 µM in [1]; 30.8 µM in experiment [2]; 31.4 µM in [3]; 33.4 µM in experiment [4]; 34.3 µM in [5]; 24.4 µM in experiment [6]. The TGI amounted to 28.7 µM in [7]; 28.3 µM in [8]; 29.9 µM in experiment [9]; 32.9 µM in experiment [10]; 18.2 µM in [11]; 30.3 µM in experiment [12]. Besides, the TGI in [13] amounted to 30.8 µM.
As for `S=c1[nH]nc(NNc2ccccc2)n1Nc1ccccc1`, the TGI was more than 100 µM in experiment [1]; more than 100 µM in experiment [2]; more than 96.6 µM in [3]; more than 100 µM in [4]; more than 59.6 µM in [5]; more than 100 µM in experiment [6]. In addition, the TGI is 32.5 µM in experiment [7]; more than 100 µM in experiment [8]; more than 100 µM in experiment [9]; more than 100 µM in [10]; more than 79.9 µM in experiment [11]; more than 100 µM in experiment [12]. In [13], the TGI is more than 100 µM.
Turning to `Nc1nc(N)c2nc(CNc3ccc(C(=O)NC(CCCCNC(=O)c4ccccc4C(=O)O)C(=O)O)cc3)cnc2n1` (stereo not given), the TGI in experiment [1], in [2], in experiment [3], in [4], in experiment [5] and in experiment [6] was more than 100 µM in each case. Further, the TGI in experiment [7] is more than 100 µM; in [8], more than 31.6 µM; in experiment [9], more than 100 µM; in experiment [10], more than 100 µM; in experiment [11], more than 100 µM; in experiment [12] it was more than 100 µM. The TGI in experiment [13] is more than 100 µM. Also, the GI50 in experiment [2] is 0.036 µM; in experiment [7], 0.000869 µM; in experiment [9] it was 0.000432 µM; in experiment [11], more than 100 µM; in experiment [13], 0.00464 µM.
`COc1ccccc1CNC(=O)[C@H](Cc1ccc(O)cn1)NC(C)=O`: the TGI in experiment [1], in [2], in experiment [3], in experiment [4], in experiment [5] and in [6] was more than 100 µM in each case. Moreover, the TGI in experiment [7], in experiment [8], in experiment [9], in experiment [10], in experiment [11] and in [12] was more than 100 µM throughout. This compound showed a TGI in experiment [13] of more than 100 µM.
For `COc1ccc(N2C(=O)CC(c3c[nH]c4ncccc34)C2=O)cc1` (stereo not given), the TGI in experiment [1] was 44.6 µM; in experiment [2] it was more than 75.6 µM; in experiment [3] it was more than 100 µM; in [4], more than 100 µM; in [5] it was 50.4 µM; in experiment [6], more than 100 µM. In addition, the TGI was more than 100 µM in experiment [7]; 19.4 µM in experiment [8]; more than 31.6 µM in [9]; more than 100 µM in [10]; 36 µM in experiment [11]; more than 96.4 µM in [12]. For the same compound, the TGI in experiment [13] turned out to be 20.1 µM.
For `COP(=O)(OC)/C(=C\c1cn(C(c2ccccc2)(c2ccccc2)c2ccccc2)cn1)NC(C)=O`, the TGI in experiment [1], in experiment [2], in experiment [3], in experiment [4], in experiment [5] and in experiment [6] was more than 100 µM in each case. Further, the TGI in experiment [7], in [8], in experiment [9], in [10], in experiment [11] and in experiment [12] was more than 100 µM each time. This compound registered a TGI in experiment [13] of more than 100 µM.
As for `C=CCn1c(-c2ccc(-c3cs/c(=N\N=O)n3CC=C)cc2)cs/c1=N\N=O`, the TGI in experiment [1], in [2], in experiment [3], in experiment [4], in [5] and in [6] was more than 100 µM throughout. Further, the TGI in [7], in experiment [8], in experiment [9], in experiment [10], in experiment [11] and in experiment [12] was more than 100 µM in each case. Moreover, the TGI in [13] is more than 100 µM.
For the compound `COC(=O)c1ccc(NCc2cc(O)ccc2O)cc1`, the TGI turned out to be 24.5 µM in experiment [1]; 37.1 µM in [2]; 24.9 µM in experiment [3]; 29.1 µM in [4]; 3.4 µM in experiment [5]; 26.3 µM in [6]. For the same compound, the TGI was 26.1 µM in experiment [7]; 17.3 µM in experiment [8]; 19.7 µM in experiment [9]; 48.8 µM in [10]; 29.1 µM in [11]; 27 µM in experiment [12]. The compound further had a TGI in [13] of 19 µM.
Consider `CCOC(=O)C(=O)C(CCC(=O)c1ccc2ccccc2c1O)C(=O)OCC` (stereo not given), for which the TGI in experiment [1], in experiment [2], in experiment [3], in experiment [4], in experiment [5] and in experiment [6] was more than 100 µM throughout. The TGI in [7], in experiment [8], in [9], in [10], in experiment [11] and in [12] was more than 100 µM throughout. Besides, the TGI in experiment [13] was more than 100 µM.
Consider `CN(C)CC1CN=C(NC(=O)Nc2ccccc2)O1` (stereo not given), for which the TGI in experiment [1], in [2], in experiment [3], in [4], in experiment [5] and in [6] was more than 100 µM each time. Further, the TGI in experiment [7], in experiment [8], in experiment [9], in [10], in [11] and in experiment [12] was more than 100 µM in each case. For the same compound, the TGI in experiment [13] is more than 100 µM.
In the case of `Cc1cc(-c2nc3cccc(F)c3s2)ccc1N`, the TGI in experiment [1], in [2], in experiment [3], in experiment [4], in experiment [5] and in experiment [6] was more than 100 µM each time. The TGI in [7] is more than 100 µM; in experiment [8], more than 100 µM; in [9], more than 100 µM; in [10] it was more than 100 µM; in experiment [11] it was more than 88.2 µM; in experiment [12] it was more than 100 µM. The compound further gave a TGI in experiment [13] of more than 100 µM.
`O=C(CSC1=NNC2(C(=O)N1)c1ccccc1-c1ccccc12)NC(=S)Nc1ccccc1`: the TGI in experiment [1], in experiment [2], in experiment [3], in [4], in experiment [5] and in [6] was more than 10 µM throughout. The TGI in experiment [7], in [8], in experiment [9], in [10], in experiment [11] and in [12] was more than 10 µM each time. Also, the TGI in experiment [13] was more than 10 µM.
